The target in assay [1] is T1, Alkaline phosphatase, tissue-nonspecific isozyme (Homo sapiens, UniProt P05186).
T1 sequence (P05186 whole entry): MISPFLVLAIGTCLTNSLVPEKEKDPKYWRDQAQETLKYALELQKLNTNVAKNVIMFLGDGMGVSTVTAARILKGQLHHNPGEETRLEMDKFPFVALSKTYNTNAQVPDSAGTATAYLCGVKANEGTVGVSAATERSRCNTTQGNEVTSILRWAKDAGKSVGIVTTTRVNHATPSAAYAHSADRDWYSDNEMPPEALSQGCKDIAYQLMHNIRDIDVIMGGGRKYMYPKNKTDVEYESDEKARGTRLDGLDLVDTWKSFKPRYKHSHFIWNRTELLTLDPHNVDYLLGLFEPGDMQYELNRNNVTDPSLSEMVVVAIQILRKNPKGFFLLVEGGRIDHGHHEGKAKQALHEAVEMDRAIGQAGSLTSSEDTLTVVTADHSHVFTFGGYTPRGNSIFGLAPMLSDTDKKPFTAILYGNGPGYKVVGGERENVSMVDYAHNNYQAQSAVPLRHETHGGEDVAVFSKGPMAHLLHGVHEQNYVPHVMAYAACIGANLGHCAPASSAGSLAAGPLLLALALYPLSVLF

The subject of assay [2] is HEK293. In words: cells. The note with it: Homo sapiens.
Assay [3] deals with Nucleotide-binding oligomerization domain-containing protein 2 (Homo sapiens, UniProt Q9HC29). Briefly: PubChem AID 2334. It counts as functional.
Chain of Nucleotide-binding oligomerization domain-containing protein 2 (Q9HC29 whole entry, the tested form may be a part): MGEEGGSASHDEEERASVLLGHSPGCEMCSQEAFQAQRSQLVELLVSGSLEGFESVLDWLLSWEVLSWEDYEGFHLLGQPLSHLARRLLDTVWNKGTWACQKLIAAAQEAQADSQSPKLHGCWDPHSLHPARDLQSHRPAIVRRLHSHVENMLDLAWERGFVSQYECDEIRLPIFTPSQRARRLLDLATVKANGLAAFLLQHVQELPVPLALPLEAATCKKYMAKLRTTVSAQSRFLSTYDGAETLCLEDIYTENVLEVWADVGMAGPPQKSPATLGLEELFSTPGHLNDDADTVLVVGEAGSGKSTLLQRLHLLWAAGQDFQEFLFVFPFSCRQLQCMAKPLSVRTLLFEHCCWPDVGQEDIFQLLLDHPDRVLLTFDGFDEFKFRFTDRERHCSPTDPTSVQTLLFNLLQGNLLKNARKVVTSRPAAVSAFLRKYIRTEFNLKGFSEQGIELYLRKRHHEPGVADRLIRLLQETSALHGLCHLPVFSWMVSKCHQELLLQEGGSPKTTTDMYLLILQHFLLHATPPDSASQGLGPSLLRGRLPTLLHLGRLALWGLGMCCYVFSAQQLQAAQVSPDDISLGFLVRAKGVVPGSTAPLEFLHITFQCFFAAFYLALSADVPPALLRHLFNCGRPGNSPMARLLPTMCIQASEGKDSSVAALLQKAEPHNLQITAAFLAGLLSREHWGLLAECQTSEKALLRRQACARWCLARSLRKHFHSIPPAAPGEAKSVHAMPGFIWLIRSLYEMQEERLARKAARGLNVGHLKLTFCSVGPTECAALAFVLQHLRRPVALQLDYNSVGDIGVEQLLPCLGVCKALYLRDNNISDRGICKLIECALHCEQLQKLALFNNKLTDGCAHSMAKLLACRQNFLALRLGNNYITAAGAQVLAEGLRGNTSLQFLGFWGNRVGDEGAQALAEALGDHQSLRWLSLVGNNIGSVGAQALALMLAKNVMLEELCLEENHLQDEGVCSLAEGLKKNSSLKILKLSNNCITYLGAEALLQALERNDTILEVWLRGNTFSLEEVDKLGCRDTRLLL
For a further assay, the target named is Tumor necrosis factor (Homo sapiens, UniProt P01375). Briefly: TNFa-triggered NF-kB activation inhibitors, SAR follow-up, cell-based, revised (AID 2337). It counts as functional.
Chain of Tumor necrosis factor (P01375 whole entry, the tested form may be a part): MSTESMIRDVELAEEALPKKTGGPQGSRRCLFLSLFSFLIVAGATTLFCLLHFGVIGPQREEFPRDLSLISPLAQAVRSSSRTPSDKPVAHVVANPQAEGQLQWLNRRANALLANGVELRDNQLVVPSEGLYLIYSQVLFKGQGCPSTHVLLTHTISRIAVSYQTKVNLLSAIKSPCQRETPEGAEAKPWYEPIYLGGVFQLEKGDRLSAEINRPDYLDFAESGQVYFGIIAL
The target of assay [4] is T2, Nucleotide-binding oligomerization domain-containing protein 1 (Homo sapiens, UniProt Q9Y239).
T2 sequence (Q9Y239 whole entry): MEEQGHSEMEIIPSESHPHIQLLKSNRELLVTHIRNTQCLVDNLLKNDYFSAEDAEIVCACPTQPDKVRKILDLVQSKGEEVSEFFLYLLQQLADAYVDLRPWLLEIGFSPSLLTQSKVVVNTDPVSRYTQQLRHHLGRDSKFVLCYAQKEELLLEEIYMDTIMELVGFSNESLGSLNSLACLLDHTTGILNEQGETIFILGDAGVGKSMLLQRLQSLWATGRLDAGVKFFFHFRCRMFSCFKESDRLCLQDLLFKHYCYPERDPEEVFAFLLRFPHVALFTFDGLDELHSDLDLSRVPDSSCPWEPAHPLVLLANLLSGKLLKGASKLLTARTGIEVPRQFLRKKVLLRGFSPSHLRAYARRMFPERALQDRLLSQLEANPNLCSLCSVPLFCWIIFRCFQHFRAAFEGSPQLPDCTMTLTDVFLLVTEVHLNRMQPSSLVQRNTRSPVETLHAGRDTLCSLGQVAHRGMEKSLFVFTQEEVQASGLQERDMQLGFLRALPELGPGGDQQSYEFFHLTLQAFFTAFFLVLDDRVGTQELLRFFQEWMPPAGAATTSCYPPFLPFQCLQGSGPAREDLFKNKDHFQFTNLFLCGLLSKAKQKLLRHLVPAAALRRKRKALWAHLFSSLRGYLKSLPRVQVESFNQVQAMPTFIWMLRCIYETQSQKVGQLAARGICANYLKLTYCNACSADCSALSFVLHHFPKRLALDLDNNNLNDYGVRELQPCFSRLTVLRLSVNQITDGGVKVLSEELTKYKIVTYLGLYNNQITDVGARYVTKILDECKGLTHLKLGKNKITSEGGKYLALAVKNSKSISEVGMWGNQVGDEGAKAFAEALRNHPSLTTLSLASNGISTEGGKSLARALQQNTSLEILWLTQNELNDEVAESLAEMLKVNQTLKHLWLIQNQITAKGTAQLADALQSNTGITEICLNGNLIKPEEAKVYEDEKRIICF
In words: NOD1 signaling inhibitors, SAR follow-up, revised (AID 2333). In kind it is functional.

For assay [5], the target named is T3, Neuropeptide Y receptor type 2 (Homo sapiens, UniProt P49146).
T3 sequence (P49146 whole entry): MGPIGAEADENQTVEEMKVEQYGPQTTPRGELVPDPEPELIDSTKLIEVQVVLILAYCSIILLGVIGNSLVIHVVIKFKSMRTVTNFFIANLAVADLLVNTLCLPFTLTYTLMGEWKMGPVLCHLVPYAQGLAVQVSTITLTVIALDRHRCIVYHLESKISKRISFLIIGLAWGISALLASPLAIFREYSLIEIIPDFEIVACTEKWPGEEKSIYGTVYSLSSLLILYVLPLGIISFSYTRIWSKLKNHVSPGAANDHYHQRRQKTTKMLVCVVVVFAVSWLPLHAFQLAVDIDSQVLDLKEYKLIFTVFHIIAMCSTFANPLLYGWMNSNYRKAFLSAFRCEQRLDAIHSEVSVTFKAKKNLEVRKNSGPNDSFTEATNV
Briefly: Fluorescence-based cell-based high-throughput dose response assay for agonists of NPY-Y2. [Related pubchem assays: 1703 (Screening assay (CNGC inhibitors).), 1359 (Screening assay (NPY-Y2 potentiators or agonists).), 1304 (Screening assay (NPY-Y1 potentiators or agonists).), 1710 (Screening assay (NPY-Y2 agonists).), 1791 (Summary AID.)]. It counts as functional.

Assay [6] concerns the target T4, Neuropeptide Y receptor type 1 (Homo sapiens, UniProt P25929).
T4 sequence (P25929 whole entry): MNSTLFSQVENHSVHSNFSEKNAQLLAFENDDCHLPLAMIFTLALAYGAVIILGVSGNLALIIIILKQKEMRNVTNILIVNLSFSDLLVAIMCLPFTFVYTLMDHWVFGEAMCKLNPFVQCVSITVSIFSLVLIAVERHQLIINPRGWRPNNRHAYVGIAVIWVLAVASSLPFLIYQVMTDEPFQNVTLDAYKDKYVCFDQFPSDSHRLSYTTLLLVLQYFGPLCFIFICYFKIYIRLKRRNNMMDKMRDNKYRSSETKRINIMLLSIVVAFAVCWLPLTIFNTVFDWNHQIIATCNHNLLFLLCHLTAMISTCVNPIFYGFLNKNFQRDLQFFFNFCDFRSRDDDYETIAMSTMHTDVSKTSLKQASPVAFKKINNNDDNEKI
In words: Fluorescence-based counterscreen for agonists of NPY-Y2: cell-based high-throughput dose response assay for agonists of NPY-Y1. In kind it is functional. (Counterscreens check selectivity or assay interference.)

The test system of assay [7] is HEK293. Briefly: Fluorescence-based counterscreen for potentiators or agonists of NPY-Y2: cell-based high-throughput dose response assay to identify inhibitors of cyclic nucleotide gated ion channel (CNGC) activity. In this assay, the parental HEK293 cell line transfected with a cyclic-nucleotide gated ion channel (CNGC)-based cAMP sensor is used to measure inhibition of isoproterenol-induced CNGC activity by test compound. The note with it: Homo sapiens. In kind it is functional.

For assay [8], the target named is Dual specificity protein phosphatase 3 (Homo sapiens, UniProt P51452). Briefly: VHR1 inhibitor Ki determination, SAR follow-up, biochemical, colorimetric (AID 2004).
Chain of Dual specificity protein phosphatase 3 (P51452 whole entry): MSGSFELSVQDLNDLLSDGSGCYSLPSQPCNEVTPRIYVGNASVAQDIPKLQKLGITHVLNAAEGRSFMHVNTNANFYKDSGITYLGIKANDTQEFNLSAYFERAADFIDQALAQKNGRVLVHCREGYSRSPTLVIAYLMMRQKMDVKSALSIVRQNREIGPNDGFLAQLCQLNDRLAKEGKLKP
The target of another assay is Caspase-8 (Homo sapiens, UniProt Q14790). In words: caspase-8 inhibition counter-screen, dose response, selectivity assay for caspase-6 inhibitor project, biochemical, Z-IETD-R110 fluorescence, cherry-picked samples (AID 743294).
Chain of Caspase-8 (Q14790 217-374 limits assumed): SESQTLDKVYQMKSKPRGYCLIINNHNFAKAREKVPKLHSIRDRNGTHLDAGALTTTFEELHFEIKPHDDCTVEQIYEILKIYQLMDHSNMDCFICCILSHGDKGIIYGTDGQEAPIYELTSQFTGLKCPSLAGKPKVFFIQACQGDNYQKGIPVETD
Chain of Caspase-8 (Q14790 385-479 limits assumed): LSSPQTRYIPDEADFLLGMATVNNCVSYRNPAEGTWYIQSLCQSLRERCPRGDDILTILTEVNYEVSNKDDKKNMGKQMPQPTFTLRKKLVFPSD
The target of assay [9] is Heat shock cognate 71 kDa protein (Homo sapiens, UniProt P11142). Briefly: In Vitro Hsc70 Dose Response Fluorescence Polarization Assay. [Related pubchem assays: 1072 ]. In general terms: Fluorescence polarisation rises when a labelled molecule tumbles more slowly, as on binding a larger partner.
The target in another assay is T5, Caspase-6 (Homo sapiens, UniProt P55212).
T5 sequence (P55212 whole entry): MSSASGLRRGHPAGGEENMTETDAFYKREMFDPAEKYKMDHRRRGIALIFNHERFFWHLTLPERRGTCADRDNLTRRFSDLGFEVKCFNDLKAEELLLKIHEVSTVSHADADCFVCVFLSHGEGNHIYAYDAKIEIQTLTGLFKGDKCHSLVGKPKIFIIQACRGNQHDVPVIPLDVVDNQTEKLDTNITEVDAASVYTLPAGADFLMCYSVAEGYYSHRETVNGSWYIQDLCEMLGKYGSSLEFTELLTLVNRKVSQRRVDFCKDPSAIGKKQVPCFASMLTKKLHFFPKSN
In words: human caspase-6 inhibitors, dose response, biochemical, VEID-R110 fluorescence, cherry-pick (AID 720632).

Assay [10] has as its target T6, Dual specificity protein phosphatase 6 (Rattus norvegicus, UniProt Q64346).
T6 sequence (Q64346 whole entry): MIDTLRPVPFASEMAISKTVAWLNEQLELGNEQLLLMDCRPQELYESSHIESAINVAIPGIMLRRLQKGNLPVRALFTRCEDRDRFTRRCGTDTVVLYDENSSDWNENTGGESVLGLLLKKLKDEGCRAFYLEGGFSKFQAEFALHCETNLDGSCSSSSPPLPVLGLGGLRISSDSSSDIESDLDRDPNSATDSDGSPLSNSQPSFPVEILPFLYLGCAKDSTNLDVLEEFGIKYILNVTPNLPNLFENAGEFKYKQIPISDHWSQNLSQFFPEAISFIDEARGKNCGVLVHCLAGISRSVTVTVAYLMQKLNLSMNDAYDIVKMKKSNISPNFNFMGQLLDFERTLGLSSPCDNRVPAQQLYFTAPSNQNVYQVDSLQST
In kind it is functional.

Assay [11] deals with Heat shock 70 kDa protein 1A (Homo sapiens, UniProt P0DMV8). Briefly: Hsp70 inhibitors, SAR follow-up, biochemical, fluorescence polarization (AID 1072).
Chain of Heat shock 70 kDa protein 1A (P0DMV8 whole entry): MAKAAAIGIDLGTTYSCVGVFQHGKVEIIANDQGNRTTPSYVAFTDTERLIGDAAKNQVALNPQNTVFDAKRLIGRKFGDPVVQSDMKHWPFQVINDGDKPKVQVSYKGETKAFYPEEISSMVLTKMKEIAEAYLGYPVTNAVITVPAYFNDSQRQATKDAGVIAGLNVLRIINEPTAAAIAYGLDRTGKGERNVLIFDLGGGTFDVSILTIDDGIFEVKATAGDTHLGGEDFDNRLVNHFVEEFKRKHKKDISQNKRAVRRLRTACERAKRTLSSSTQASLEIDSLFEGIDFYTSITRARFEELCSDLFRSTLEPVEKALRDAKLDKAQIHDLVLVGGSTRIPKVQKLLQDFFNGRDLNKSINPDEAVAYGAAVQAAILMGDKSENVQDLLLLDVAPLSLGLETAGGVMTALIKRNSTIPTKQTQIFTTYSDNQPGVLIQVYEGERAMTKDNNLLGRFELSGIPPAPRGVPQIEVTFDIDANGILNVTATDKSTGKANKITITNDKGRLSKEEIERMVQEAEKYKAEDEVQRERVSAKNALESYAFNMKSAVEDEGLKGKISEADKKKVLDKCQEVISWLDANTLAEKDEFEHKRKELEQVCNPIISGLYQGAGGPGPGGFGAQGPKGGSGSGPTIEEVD
Assay [12] addresses T6, Dual specificity protein phosphatase 6.
In assay [13] the target is T7, Tyrosine-protein phosphatase non-receptor type 7 (Homo sapiens, UniProt P35236).
T7 sequence (P35236 whole entry): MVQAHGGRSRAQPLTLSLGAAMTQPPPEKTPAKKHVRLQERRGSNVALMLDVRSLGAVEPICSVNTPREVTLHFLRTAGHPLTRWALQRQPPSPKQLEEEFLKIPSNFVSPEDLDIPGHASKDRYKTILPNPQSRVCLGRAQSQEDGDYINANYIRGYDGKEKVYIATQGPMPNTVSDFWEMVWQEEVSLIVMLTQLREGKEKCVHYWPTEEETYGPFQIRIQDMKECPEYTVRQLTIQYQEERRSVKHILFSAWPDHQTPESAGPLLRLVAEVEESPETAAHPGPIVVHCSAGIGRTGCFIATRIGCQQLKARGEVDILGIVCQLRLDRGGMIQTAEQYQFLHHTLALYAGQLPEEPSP
In kind it is functional.

For assay [14], the target named is Glyceraldehyde-3-phosphate dehydrogenase (Homo sapiens, UniProt P04406).
For another assay, the target named is Caspase-7 (Homo sapiens, UniProt P55210). Briefly: human caspase-7 inhibitors, dose response, selectivity assay for caspase-6 inhibitor project, biochemical, DEVD-R110 fluorescence, cherry-pick (AID 743295). It counts as […].
Chain of Caspase-7 (P55210 24-198 limits assumed): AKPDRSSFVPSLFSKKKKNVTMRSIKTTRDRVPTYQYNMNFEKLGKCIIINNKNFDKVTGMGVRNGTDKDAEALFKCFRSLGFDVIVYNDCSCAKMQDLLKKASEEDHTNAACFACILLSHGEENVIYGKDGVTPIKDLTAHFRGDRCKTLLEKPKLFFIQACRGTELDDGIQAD
Chain of Caspase-7 (P55210 207-303 limits assumed): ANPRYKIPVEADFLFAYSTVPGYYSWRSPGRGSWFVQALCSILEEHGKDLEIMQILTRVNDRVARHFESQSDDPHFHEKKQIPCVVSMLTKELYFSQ
For assay [15], the target named is DNA (cytosine-5)-methyltransferase 1 (Homo sapiens, UniProt P26358). In words: DNMT1 methyltransferase inhibitors, confirmation, biochemical, fluorescent molecular beacon (AID 602386). In kind it is functional.
Chain of DNA (cytosine-5)-methyltransferase 1 (P26358 whole entry, the tested form may be a part): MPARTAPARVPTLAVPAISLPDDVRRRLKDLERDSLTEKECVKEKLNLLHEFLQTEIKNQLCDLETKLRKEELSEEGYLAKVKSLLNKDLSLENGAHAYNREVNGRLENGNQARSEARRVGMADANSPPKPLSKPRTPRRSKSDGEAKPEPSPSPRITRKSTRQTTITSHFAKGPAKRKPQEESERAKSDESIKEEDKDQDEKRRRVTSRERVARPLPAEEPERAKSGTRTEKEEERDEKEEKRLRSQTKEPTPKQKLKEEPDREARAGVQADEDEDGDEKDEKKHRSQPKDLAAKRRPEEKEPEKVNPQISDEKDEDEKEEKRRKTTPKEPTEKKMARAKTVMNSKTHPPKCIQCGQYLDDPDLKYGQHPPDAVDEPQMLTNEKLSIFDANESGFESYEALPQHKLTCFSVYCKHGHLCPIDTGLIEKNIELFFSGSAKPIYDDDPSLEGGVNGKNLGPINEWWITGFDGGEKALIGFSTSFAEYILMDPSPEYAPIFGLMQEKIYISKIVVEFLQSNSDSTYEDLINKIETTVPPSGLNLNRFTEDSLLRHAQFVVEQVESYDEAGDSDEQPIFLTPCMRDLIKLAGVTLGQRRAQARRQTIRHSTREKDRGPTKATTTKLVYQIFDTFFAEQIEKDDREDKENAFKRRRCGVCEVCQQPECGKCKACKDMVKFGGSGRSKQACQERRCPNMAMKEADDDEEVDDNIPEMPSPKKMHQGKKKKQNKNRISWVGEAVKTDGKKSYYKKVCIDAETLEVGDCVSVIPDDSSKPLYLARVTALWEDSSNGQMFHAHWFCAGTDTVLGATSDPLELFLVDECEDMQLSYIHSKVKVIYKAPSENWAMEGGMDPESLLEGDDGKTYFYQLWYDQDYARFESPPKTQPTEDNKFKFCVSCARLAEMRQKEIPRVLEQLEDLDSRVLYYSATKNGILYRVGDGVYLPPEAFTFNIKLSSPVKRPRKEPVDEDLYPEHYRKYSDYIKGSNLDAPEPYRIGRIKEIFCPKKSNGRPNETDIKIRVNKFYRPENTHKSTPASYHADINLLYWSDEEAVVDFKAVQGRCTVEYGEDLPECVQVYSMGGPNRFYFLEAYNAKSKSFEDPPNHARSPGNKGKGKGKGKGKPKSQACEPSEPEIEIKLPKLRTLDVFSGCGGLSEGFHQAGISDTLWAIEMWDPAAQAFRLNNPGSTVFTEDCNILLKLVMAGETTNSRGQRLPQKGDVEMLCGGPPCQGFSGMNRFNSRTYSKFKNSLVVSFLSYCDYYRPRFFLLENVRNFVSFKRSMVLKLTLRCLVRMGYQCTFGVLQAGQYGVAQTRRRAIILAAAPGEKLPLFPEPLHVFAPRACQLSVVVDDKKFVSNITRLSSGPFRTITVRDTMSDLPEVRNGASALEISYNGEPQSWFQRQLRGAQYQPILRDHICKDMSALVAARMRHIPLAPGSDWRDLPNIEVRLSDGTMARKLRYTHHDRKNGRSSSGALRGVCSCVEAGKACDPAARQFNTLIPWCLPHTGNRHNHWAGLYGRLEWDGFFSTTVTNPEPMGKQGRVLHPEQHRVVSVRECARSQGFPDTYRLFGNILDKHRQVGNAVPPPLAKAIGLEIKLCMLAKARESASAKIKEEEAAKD
The target of assay [16] is T8, Hepatocyte nuclear factor 4-alpha (Homo sapiens, UniProt P41235).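 Note: biochemical luminescence-based dose-response counterscreen measuring inhibition of HNF4 dimerization, run alongside a screen for blockers of ABHD5–perilipin-5 interaction; split luciferase complementation of HNF4 fusion proteins in cell lysate measuring dimerization.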
T8 sequence (P41235 whole entry): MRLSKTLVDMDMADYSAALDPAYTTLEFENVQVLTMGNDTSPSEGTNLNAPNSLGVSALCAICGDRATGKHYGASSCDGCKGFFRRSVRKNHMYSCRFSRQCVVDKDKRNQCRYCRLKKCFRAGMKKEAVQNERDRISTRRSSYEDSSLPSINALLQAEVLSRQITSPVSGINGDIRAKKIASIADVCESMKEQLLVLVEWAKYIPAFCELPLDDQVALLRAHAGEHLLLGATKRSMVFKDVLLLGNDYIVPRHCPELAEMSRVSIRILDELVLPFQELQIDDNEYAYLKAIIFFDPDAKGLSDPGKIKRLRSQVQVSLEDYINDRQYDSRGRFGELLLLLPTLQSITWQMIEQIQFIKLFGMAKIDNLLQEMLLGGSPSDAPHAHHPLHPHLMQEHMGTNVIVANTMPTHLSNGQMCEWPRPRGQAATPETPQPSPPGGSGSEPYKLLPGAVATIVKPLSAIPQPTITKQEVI
It counts as functional, cell-based.

Assay [17] has as its target Induced myeloid leukemia cell differentiation protein Mcl-1 (Homo sapiens, UniProt Q07820). It counts as functional.
The target of another assay is Bcl-2-like protein 10 (Homo sapiens, UniProt Q9HD36). Briefly: displacers of TR3 peptide from Bcl-B, primary screen, selectivity assay for Bfl-1 inhibitor project, biochemical, fluorescence polarization, FITC-TR3 peptide (AID 748).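 Note: fluorescence polarization from a fluorescein-labelled TR3 peptide binding purified Bcl-B.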
Chain of Bcl-2-like protein 10 (Q9HD36 whole entry): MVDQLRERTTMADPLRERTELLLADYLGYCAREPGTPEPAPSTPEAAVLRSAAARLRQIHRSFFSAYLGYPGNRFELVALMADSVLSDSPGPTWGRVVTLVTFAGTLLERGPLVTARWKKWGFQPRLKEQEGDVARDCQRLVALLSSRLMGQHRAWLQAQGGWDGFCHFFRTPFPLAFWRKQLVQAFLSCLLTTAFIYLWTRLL
The next assay deals with Cytochrome P450 2D6 (Homo sapiens, UniProt P10635). In words: qHTS Assay for Inhibitors and Substrates of Cytochrome P450 2D6. [Related pubchem assays: 410 ]. In kind it is ADME. The note with it: read-out: Potency. A general note: Quantitative high-throughput screening tests each substance at several concentrations.

This is an account of results in ChEMBL document CHEMBL1201862, “PubChem BioAssay data set” (2004).

The source made the active and inactive calls.

Chain of Induced myeloid leukemia cell differentiation protein Mcl-1 (Q07820 whole entry): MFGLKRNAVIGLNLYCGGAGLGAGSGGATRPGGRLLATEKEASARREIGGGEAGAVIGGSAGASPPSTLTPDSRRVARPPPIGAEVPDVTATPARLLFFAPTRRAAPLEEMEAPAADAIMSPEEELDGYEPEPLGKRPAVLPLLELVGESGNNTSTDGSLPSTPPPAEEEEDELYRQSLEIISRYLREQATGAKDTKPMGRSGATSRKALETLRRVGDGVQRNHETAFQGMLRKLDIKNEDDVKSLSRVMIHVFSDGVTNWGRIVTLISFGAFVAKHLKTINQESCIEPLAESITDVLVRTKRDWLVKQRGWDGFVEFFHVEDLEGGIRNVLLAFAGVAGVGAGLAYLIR

On to `Cn1c(=O)c2c(nc(N/N=C/c3cccs3)n2Cc2ccc(Br)cc2)n(C)c1=O`, for which, in assay [1], the 50% effective concentration (EC50) is > 100 µM (not active).

`CCCCNCC(=O)Nc1sc2c(c1C(=O)O)CCCC2`: the IC50 (in the assay with HEK293 [2]; in assay [3]; at Tumor necrosis factor; in assay [4]) was > 20 µM (inactive) throughout.

As to `Cc1c([N+](=O)[O-])c(C(=O)Sc2ccc(Br)cc2)nn1C`, the EC50 is given as > 35.4 µM (not active) in [5], > 35.4 µM (not active) in [6] and > 11.8 µM (not active) with HEK293 [7].

Take `CCOC(=O)c1c(N)sc2c1CCN(Cc1ccccc1)C2` [TINORIDINE]: the Ki in [8] is 20.5 µM (inactive).

Regarding `O=C(O)C1Nc2c(Cl)cc(Cl)c(Cl)c2C2C=CCC12` (stereo not drawn), the AC50 was > 70 µM (inactive) on Caspase-8, 2 µM (active) on Caspase-6 and 34.1 µM (active) at Caspase-7. The 50% inhibitory concentration (IC50) was > 100 µM (not active) in [9]; 12 µM (active) in assay [10]; > 100 µM (not active) in [11]; 14.2 µM (active) in assay [12]; 9.63 µM (active) in assay [13]; > 100 µM (not active) in assay [14]. The IC50 in assay [15] is 4.36 µM (active).

For `Cc1ccc(NC(=O)CSc2nnc(-c3ccco3)c(-c3ccco3)n2)cc1`, the values for the half-maximal inhibitory concentration (IC50) (in assay [16]; in assay [17]; at Bcl-2-like protein 10) were 1.6 µM (active), 3.01 µM (active) and 19 µM (active), respectively.

As to `CCCCc1nc2c(c3c1CC(C)OC3)CN(CCC(C)C)CC2` (stereo not drawn), the AC50 at Cytochrome P450 2D6 was 3.98 µM (inconclusive).

Usually EC50 stands for the concentration giving half of the maximal effect. For orientation: IC50 means the concentration that inhibits the measured activity by half. One may read the Ki as the dissociation constant of the complex between target and ligand, obtained from inhibition or displacement.
